Test results published in patent US12595253B2, “Benzamides of pyrazolylamino-pyrimidinyl derivatives, and compositions and methods thereof” (LYNK PHARMACEUTICALS CO. LTD., priority 2019, dated 2026).

How the values were obtained:
JAK1 = target: T1, JAK1 (Homo sapiens, UniProt P23458); experiment: JAK1 microfluidic kinase assay (Caliper EZ Reader II, FAM labeled peptide substrate); assay type: biochemical; settings: IC50 JAK1 (5 nM) (1 m MATP), JAK1 5 nM, 1 mM ATP
T1 construct: purchased Carna Biosciences
T1 sequence (P23458 whole entry): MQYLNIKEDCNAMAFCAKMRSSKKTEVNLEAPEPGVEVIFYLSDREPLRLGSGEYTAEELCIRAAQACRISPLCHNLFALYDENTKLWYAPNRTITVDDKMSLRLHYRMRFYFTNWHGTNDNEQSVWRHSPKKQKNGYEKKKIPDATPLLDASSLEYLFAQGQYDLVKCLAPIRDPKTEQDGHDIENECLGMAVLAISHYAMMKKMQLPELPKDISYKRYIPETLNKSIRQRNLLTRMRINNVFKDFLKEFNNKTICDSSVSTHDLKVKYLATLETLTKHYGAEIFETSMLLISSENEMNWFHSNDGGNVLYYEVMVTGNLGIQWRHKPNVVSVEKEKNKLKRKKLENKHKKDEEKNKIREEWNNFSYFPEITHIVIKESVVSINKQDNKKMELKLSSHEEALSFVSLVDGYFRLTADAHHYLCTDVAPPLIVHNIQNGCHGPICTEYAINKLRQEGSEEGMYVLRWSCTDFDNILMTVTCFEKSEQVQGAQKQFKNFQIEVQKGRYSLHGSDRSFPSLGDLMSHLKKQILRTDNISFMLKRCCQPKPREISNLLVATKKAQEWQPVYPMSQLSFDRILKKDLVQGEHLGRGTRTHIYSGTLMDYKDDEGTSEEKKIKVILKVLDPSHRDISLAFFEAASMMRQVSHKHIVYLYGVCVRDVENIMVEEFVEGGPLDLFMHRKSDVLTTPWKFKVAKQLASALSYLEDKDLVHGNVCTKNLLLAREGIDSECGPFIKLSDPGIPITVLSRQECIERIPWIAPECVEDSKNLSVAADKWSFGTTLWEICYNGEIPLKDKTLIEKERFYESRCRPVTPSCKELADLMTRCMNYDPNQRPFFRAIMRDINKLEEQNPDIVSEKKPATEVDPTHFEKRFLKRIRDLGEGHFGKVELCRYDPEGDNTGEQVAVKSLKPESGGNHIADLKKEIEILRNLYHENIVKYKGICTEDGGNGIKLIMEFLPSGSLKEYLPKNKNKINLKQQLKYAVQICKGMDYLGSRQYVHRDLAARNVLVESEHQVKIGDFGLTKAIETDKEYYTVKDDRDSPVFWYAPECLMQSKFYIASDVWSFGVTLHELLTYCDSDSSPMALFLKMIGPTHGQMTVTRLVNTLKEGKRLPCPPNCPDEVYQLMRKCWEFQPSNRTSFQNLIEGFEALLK
Summary of the method: (§1)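 Compounds, serially diluted 3-fold from 5 μM, were preincubated 10 min with enzyme at ambient temperature before reaction in HEPES/Brij35/MgCl2/DTT buffer (1% DMSO final), tuned to 10% peptide conversion. After EDTA stop, FAM-peptide phosphorylation was measured by Caliper EZ Reader II; IC50 fitted from percent-inhibition curves.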

JAK2V617F = target: T2, JAK2V617F (Homo sapiens, UniProt O60674, V617F); experiment: JAK2V617F microfluidic kinase assay (Caliper EZ Reader II, FAM labeled peptide substrate); assay type: biochemical; settings: JAK2V617F 2.5 nM, 1 mM ATP
T2 construct: purchased Carna Biosciences
T2 sequence (O60674 whole entry V617F): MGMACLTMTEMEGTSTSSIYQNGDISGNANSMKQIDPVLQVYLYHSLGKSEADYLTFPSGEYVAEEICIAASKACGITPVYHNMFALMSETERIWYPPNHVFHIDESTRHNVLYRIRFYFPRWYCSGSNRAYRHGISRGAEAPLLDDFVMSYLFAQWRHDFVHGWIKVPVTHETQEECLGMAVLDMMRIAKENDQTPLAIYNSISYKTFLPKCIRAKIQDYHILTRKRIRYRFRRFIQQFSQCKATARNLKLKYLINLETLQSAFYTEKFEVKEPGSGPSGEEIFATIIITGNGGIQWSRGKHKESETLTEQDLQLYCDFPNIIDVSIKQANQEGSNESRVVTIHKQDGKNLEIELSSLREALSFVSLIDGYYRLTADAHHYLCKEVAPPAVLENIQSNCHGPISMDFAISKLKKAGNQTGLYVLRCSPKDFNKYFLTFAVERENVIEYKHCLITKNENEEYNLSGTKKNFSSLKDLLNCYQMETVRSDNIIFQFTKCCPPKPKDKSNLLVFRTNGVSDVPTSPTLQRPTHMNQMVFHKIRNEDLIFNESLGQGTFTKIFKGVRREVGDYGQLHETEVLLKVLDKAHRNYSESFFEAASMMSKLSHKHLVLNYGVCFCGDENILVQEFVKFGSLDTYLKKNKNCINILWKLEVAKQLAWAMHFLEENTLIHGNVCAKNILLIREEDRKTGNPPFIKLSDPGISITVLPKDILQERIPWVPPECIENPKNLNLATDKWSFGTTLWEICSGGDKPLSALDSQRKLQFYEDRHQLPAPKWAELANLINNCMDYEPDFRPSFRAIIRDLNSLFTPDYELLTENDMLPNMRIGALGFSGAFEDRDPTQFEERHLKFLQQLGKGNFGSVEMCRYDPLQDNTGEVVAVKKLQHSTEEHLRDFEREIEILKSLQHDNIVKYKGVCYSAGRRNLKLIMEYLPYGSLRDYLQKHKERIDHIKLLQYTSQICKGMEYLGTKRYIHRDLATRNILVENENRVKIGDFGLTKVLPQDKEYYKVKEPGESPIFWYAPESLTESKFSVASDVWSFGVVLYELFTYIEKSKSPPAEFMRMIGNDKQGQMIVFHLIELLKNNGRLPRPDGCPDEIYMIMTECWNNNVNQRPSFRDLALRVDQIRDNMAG
Summary of the method: as §1

[1] = Liver microsomes study, Phase I stability (RLM); assay type: in vitro ADME, rat; settings: pH 7.4; rat liver microsomes 0.5 mg/mL, 1 μM test article; read-out: RLM Clint
Summary of the method: (§2)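 Rat or human liver microsomes were incubated with test article, and reactions started with an NADPH regenerating system. Samples at 0, 10, 30 and 90 minutes were quenched with cold acetonitrile and analyzed by LC/MS/MS. T½ and CLint came from the ln(% remaining) versus time slope, scaled by protein concentration.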

[2] = Liver microsomes study, Phase I stability (HLM); assay type: in vitro ADME, human; settings: pH 7.4; human liver microsomes 0.5 mg/mL, 1 μM test article; read-out: HLM Clint
Summary of the method: as §2

[3] = Rat pharmacokinetic study (intravenous and oral); assay type: in vivo; settings: male, plasma, Sprague-Dawley rats, solution
Protocol: Pharmacokinetic profile of test articles in rodent were evaluated in fasted male ICR mouse and Sprague-Dawley rats. […] Typically, mice were dosed with 2 mg/kg and 10 mg/kg by intravenous injection and oral gavage, respectively. Rats were dosed with 1 mg/kg and 5 mg/kg by intravenous injection and oral gavage, respectively. Beagle dogs were dosed with 1 mg/kg and 5 mg/kg by intravenous injection and oral gavage, respectively. After dosing, blood samples were collected at each time point. For IV injection group, time points were set at 5, 15, 30 min, and then 1, 2, 4, 8 and 24 hours after dosing. For oral gavage group, timepoints were set at 15, 30 m, and then 1, 2, 4, 8, and 24 hours. Blood was collected into appropriately labeled tubes containing K2EDTA as the anticoagulant. Plasma was obtained within 1 hours of blood collection by centrifugation at 8000×g and 4° C. for 6 minutes, and then stored at −20° C. until analyzed by LCMS/MS for quantification.

[4] = Rat pharmacokinetic study (intravenous and oral); assay type: in vivo; settings: Sprague-Dawley rats, oral, solution
JAK2 = target: T3, JAK2 (Homo sapiens, UniProt O60674); experiment: JAK2 microfluidic kinase assay (Caliper EZ Reader II, FAM labeled peptide substrate); assay type: biochemical
T3 construct: purchased Carna Biosciences
T3 sequence (O60674 whole entry): as the sequence (O60674 whole entry V617F) above, with F617V counted along it
Summary of the method: as §1

FLT3D835Y = target: T4, FLT3D835Y (Homo sapiens, UniProt P36888, D835Y); experiment: FLT3D835Y microfluidic kinase assay; assay type: biochemical
T4 construct: purchased Carna Biosciences
T4 sequence (P36888 27-993 D835Y): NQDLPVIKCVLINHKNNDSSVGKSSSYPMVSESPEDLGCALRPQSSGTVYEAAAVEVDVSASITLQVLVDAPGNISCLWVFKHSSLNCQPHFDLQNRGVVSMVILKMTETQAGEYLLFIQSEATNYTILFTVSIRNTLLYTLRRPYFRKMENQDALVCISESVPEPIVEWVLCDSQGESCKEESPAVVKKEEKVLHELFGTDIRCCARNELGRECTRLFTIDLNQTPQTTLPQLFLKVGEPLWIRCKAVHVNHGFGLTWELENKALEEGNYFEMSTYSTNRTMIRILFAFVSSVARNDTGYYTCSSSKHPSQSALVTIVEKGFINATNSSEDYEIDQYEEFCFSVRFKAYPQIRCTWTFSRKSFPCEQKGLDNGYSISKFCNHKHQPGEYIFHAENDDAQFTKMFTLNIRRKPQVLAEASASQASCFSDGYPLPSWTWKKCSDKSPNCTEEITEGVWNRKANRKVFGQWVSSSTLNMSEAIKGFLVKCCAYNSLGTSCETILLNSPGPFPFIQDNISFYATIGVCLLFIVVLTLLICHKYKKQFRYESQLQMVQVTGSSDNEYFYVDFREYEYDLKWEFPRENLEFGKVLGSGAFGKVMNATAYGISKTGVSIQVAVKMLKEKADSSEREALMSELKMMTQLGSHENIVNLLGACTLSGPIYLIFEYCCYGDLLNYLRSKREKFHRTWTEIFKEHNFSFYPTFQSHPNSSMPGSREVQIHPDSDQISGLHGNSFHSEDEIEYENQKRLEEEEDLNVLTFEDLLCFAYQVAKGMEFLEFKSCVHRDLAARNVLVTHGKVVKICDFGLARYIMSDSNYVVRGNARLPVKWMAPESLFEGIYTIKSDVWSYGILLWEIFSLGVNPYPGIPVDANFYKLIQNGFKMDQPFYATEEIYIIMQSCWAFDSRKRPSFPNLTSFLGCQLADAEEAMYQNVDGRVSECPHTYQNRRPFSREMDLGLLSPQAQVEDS
Protocol: Compounds were tested against FLT3, FLT3ITD and FLT3D835Y.
Assay Formats: FLT3 activity was determined in the reaction buffer 50 mM HEPES, 10 mM MgCl2 and 2 mM DTT by a microfluidic assay. The phosphorylation of a FAM labeled peptide substrate was monitored in the Caliper EZ Reader II (Perkin Elmer). The assay condition for each batch of enzyme (Carna Biosciences) was optimized to obtain 10% conversion rate of peptide substrate.
The test compounds were dissolved in DMSO to a stock concentration of 10 mM. 3-fold serially diluted compounds with top concentration of 5 μM were pre-incubated with FLT3, FLT3ITD or FLT3D835Y for 10 min at ambient temperature. The final DMSO concentration of assay mixture was 1%. […] The reaction was stopped by adding 50 mM EITA. The reaction time for FLT3, FLT3ITD and FLT3D8335Y was 30 min, 40 min and 40 min, respectively.
And the well without compound but with equivalent DMSO was defined as no inhibition. The percent inhibition was calculated by the following formula. % Inhibition=(Conversionmax−Conversionsample)/(Conversionmax−Conversionmin)*100 • Conversionmax means the conversion rate in the positive well without addition of compound • Conversionmin means the conversion rate in the well without addition of enzyme • Conversionsample means the conversion rate of test compounds
The dose-response (percent inhibition) curve was plotted and IC50 values were determined by GraphPad software.

TYK2 = target: T5, TYK2 (Homo sapiens, UniProt P29597); experiment: TYK2 microfluidic kinase assay (Caliper EZ Reader II, FAM labeled peptide substrate); assay type: biochemical; settings: IC50 TYK2 ([…]) (1 mM ATP), TYK2 […], 1 mM ATP
T5 construct: purchased Carna Biosciences
T5 sequence (P29597 whole entry): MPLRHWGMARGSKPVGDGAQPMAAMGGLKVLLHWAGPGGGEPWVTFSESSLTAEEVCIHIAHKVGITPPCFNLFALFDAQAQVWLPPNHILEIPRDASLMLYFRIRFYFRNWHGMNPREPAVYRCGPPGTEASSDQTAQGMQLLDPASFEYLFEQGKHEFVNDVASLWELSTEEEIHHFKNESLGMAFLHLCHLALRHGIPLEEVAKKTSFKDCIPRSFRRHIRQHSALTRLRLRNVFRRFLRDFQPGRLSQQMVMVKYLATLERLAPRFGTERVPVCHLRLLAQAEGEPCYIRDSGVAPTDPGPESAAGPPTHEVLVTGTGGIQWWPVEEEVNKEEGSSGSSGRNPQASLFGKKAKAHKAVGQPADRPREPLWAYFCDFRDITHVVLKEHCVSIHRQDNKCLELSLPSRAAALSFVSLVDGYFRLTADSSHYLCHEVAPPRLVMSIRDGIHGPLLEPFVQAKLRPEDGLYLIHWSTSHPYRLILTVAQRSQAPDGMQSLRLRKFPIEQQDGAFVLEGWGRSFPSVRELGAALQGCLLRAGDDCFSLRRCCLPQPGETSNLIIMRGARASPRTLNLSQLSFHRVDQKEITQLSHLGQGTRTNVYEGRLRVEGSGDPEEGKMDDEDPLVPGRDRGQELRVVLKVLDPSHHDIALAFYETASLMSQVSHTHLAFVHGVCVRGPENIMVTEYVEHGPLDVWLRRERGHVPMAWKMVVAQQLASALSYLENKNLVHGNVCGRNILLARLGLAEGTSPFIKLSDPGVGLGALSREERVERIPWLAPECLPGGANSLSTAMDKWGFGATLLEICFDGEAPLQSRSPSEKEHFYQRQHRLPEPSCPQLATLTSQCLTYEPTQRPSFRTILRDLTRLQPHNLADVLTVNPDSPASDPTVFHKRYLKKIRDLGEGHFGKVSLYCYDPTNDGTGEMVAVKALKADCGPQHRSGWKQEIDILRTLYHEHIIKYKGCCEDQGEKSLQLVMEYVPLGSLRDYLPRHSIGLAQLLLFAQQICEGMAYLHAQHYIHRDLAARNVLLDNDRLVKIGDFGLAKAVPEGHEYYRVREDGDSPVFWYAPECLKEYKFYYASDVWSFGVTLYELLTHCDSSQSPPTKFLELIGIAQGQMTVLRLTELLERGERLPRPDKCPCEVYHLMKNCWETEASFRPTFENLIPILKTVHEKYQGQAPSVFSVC
Summary of the method: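 Percent inhibition of peptide phosphorylation, read by microfluidic mobility shift, gave IC50s. Compounds were preincubated with enzyme 10 min before reaction; timing was kinase-specific (JAK1 120 min, TYK2 10 min, JAK2 20 min, JAK2V617F 30 min).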

CYP1A2 = target: T6, CYP1A2 (Homo sapiens, UniProt P05177); experiment: CYPs inhibition in pooled human liver microsomes, probe substrate Phenacetin; assay type: in vitro ADME
T6 construct: 0.2 mg/mL human liver microsomes was pre-incubated in 180 μL reaction mixture; from tissue; host or cells: pooled human liver microsomes
T6 sequence (P05177 1-516): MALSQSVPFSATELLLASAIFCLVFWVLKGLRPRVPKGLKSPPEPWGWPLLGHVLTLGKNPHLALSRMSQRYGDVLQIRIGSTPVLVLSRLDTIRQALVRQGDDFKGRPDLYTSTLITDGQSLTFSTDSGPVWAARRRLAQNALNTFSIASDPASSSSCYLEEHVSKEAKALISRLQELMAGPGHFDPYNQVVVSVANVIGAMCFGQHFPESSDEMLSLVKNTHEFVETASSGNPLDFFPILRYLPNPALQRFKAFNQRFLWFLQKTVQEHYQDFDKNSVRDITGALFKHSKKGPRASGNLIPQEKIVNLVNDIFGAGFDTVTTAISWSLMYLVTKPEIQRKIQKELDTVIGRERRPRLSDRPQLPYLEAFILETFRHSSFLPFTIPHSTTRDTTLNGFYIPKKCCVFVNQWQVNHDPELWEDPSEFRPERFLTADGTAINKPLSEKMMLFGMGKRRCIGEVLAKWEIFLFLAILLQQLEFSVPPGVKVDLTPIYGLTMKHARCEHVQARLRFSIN
Protocol: (§3) The inhibitory potential of test articles in pooled human liver microsomes was evaluated by the method using a cocktail of CYP substrates. […] For the negative control well, the test articles was replaced with 20 μL reaction buffer. After 10 min of pre-incubation at 37° C., 20 μL 10 mM NADPH cofactor was added to the pre-reaction mixtures. After another 10 min incubation, the reaction was stopped by adding 400 μL of ice cold acetonitrile solution containing tolbutamide and labetalol served as internal standards. The incubation mixtures were centrifuged at 4000×g for 20 min, and then the supernatants were analyzed by LC-MS/MS after dilution. SigmaPlot was applied to plot % control activity versus the test compound concentrations, and for non-linear regression analysis of the data. IC50 values of test articles were determined using 3-parameter logistic equation.

CYP2C9 = target: T7, CYP2C9 (Homo sapiens, UniProt P11712); experiment: CYPs inhibition in pooled human liver microsomes, probe substrate Diclofenac; assay type: in vitro ADME
T7 construct: 0.2 mg/mL human liver microsomes was pre-incubated in 180 μL reaction mixture; from tissue; host or cells: pooled human liver microsomes
Protocol: as §3

CYP2C19 = target: T8, CYP2C19 (Homo sapiens, UniProt P33261); experiment: CYPs inhibition in pooled human liver microsomes, probe substrate S-mephenytoin; assay type: in vitro ADME
T8 construct: 0.2 mg/mL human liver microsomes was pre-incubated in 180 μL reaction mixture; from tissue; host or cells: pooled human liver microsomes
T8 sequence (P33261 whole entry): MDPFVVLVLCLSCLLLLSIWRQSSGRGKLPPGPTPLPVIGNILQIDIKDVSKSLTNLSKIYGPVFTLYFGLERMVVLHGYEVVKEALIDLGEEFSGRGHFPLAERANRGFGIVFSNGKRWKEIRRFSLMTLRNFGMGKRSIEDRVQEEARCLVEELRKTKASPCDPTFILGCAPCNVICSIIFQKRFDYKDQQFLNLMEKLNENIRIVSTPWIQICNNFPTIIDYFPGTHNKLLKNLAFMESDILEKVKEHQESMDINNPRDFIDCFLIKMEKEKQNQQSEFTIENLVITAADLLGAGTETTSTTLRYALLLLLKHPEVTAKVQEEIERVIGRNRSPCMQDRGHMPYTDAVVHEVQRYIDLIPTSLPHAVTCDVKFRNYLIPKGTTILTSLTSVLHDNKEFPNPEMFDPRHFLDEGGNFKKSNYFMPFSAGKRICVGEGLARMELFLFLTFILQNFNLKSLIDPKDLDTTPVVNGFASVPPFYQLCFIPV
Protocol: as §3

CYP2D6 = target: T9, CYP2D6 (Homo sapiens, UniProt P10635); experiment: CYPs inhibition in pooled human liver microsomes, probe substrate Dextromethorphan; assay type: in vitro ADME
T9 construct: 0.2 mg/mL human liver microsomes was pre-incubated in 180 μL reaction mixture; from tissue; host or cells: pooled human liver microsomes
T9 sequence (P10635 whole entry): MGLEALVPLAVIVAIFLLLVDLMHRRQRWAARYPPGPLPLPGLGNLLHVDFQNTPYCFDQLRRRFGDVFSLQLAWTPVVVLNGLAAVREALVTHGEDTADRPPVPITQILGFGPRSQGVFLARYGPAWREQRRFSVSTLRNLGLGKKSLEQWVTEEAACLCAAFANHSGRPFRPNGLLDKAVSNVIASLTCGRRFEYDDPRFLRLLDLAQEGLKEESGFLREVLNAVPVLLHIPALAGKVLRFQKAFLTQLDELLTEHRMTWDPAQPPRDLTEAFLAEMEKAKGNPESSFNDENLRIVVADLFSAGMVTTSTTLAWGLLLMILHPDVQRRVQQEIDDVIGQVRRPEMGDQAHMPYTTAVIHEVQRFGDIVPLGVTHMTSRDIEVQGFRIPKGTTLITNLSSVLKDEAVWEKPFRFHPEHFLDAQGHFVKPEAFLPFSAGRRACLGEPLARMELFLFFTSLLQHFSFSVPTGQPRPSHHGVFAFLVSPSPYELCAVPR
Protocol: as §3

CYP3A4 = target: T10, CYP3A4 (Homo sapiens, UniProt P08684); experiment: CYPs inhibition in pooled human liver microsomes, probe substrate Midazolam; assay type: in vitro ADME
T10 construct: 0.2 mg/mL human liver microsomes was pre-incubated in 180 μL reaction mixture; from tissue; host or cells: pooled human liver microsomes
T10 sequence (P08684 whole entry): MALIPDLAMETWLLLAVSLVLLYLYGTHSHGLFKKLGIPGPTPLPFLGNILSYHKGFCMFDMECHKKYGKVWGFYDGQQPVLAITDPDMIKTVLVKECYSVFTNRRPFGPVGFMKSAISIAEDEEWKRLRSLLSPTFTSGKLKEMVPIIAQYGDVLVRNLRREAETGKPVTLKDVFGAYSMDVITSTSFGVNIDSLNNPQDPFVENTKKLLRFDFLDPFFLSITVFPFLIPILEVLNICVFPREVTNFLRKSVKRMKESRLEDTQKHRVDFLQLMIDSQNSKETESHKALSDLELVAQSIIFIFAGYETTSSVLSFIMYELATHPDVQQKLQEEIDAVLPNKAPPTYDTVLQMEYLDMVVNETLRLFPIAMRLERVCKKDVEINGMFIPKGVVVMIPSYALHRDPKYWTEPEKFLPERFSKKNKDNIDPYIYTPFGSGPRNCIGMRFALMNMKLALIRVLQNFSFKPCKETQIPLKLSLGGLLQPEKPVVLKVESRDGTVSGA
Protocol: as §3

[5] = IC50 JAK2 ([…]) (1 mM ATP), 1 mM ATP

Row | IC50 (JAK1) [nM] | IC50 (JAK2V617F) [nM] | microsomal CLint at 1 μM [1] [µL/min/mg] | microsomal CLint at 1 μM [2] [µL/min/mg] | AUC ([3]; intravenous, 1 mg/kg) [ng·h/mL] | Vd ([3]; intravenous, 1 mg/kg) [L/kg] | clearance ([3]; intravenous, 1 mg/kg) [mL/min/kg] | half-life ([3]; intravenous, 1 mg/kg) [min] | IC50 (JAK2; [5]) [nM] | IC50 (FLT3D835Y) [nM] | SMILES | other results
1 | 18.7 | 5.37 | 27.5 | 54.8 | 951 | 0.7 | 17.5 | 27.6 | – | – | C[C@@H](C#N)NC(=O)c1ccc(-c2nc(Nc3cnn(C4CCOCC4)c3)ncc2Cl)cc1 [Example 39, (S)-4-(5-chloro-2-((1-(tetrahydro-2H-pyran-4-yl)-1H-pyrazol-4-yl)amino)pyrimidin-4-yl)-N-(1-cyanoethyl)benzamide] | F ([4]; 10 mg/kg): 11.99%; AUC ([4]; male, rat, plasma, 10 mg/kg): 1090 ng·h/mL; Cmax ([4]; male, rat, plasma, 10 mg/kg): 346 ng/mL; half-life ([4]; male, rat, plasma, 10 mg/kg): 106 min
2 | 13 | < 0.25 | 61 | 77.2 | 2880 | 0.28 | 6.3 | 33.6 | < 0.25 | 7.87 | Cc1cnc(Nc2cnn(C3CCN(C(=O)C4(C)CC4)CC3)c2)nc1-c1ccc(C(=O)NCC#N)cc1 [Example 38, N-(cyanomethyl)-4-(5-methyl-2-((1-(1-(1-methylcyclopropanecarbonyl)piperidin-4-yl)-1H-pyrazol-4-yl)amino)pyrimidin-4-yl)benzamide] | AUC ([3]; oral, 5 mg/kg): 1170 ng·h/mL; Cmax ([3]; oral, 5 mg/kg): 924 ng/mL; half-life ([3]; oral, 5 mg/kg): 84 min; F ([4]; 5 mg/kg): 8.36%
3 | 0.82 | 2.42 | 221 | 22.8 | – | – | – | – | 0.61 | – | CC[C@@H](C#N)NC(=O)c1ccc(-c2nc(Nc3cnn(C4CCN(C)CC4)c3)ncc2Cl)cc1 [Example 88, (S)-4-(5-chloro-2-((1-(1-methylpiperidin-4-yl)-1H-pyrazol-4-yl)amino)pyrimidin-4-yl)-N-(1-cyanopropyl)benzamide] | IC50 (TYK2): 6.68 nM; IC50 (CYP1A2): > 50 µM; IC50 (CYP2C9): 45.3 µM; IC50 (CYP2C19): 24 µM; IC50 (CYP2D6): 41.9 µM; IC50 (CYP3A4): 32.1 µM
4 | 34.3 | – | 120 | 1.5 | 880 | 0.6 | 18.9 | 21.6 | 78.7 | 57.4 | Cc1cnc(Nc2cnn(C)c2)nc1-c1ccc(C(=O)NCC(C)(C)C#N)cc1 [Example 13, N-(2-Cyano-2-methylpropyl)-4-(5-methyl-2-((1-methyl-1H-pyrazol-4-yl)amino)pyrimidin-4-yl)benzamide] | IC50 (JAK2; IC50 JAK2 ([…]) (Km ATP), Km ATP): 2.7 nM
